Values of other authors in patent US20070042008A1, “Compositions containing phosphatidylcholine and essential fatty acids” (BodyBio, Inc., priority 2005, published 2007).

Conditions: oral

Phosphatidylcholine [PC]
blood levels peak (time to peak): 8 to 12 h | absorbed, taken orally (per 24 hrs, taken with meals): up to 90%
